Assay results: ChEMBL document CHEMBL4402608 (J Med Chem, 2020); call rule not given here

Columns and labels:
[1] = target: Sodium-dependent dopamine transporter (Homo sapiens, UniProt Q01959); test: Displacement of [3H]-Win35428 from human DAT expressed in stable HEK cell membranes after 90 mins by microbeta scintillation counting method
Histamine H2 receptor = Histamine H2 receptor (Homo sapiens, UniProt P25021); test: Displacement of [125I]-Iodo-aminopotentidine from human histamine H2 receptor expressed in stable HEK cell membranes after 90 mins by microbeta scintillation counting method
Histamine H3 receptor = Histamine H3 receptor (Homo sapiens, UniProt Q9Y5N1); test: Displacement of [3H]-alpha-methylhistamine from recombinant human histamine H3 receptor expressed in HEK Flp-In cell membranes measured after 90 mins by microbeta scintillation counting method
[2] = target: Sodium-dependent serotonin transporter (Homo sapiens, UniProt P31645); test: Displacement of [3H]-citalopram from human SERT receptor expressed in stable HEK cell membranes after 90 mins by microbeta scintillation counting method
5HT1A receptor = 5HT1A receptor (Homo sapiens, UniProt P08908); test: Displacement of [3H]-Way100635 from recombinant human 5HT1A receptor stably expressed in CHO cell membranes at 10 uM measured after 90 mins by microbeta scintillation counting method relative to control; settings: probe [3H]-Way100635
5HT1B receptor = 5HT1B receptor (Homo sapiens, UniProt P28222); test: Displacement of [3H]5-CT from recombinant human 5HT1B receptor stably expressed in HEK cell membranes at 10 uM measured after 90 mins by microbeta scintillation counting method relative to control; settings: probe [3H]5-CT
5HT2A receptor = 5HT2A receptor (Homo sapiens, UniProt P28223); test: Displacement of [3H]-Ketanserin from 5HT2A receptor (unknown origin) at 10 uM measured after 90 mins by microbeta scintillation counting method relative to control; settings: probe [3H]-Ketanserin
5HT2B receptor = 5HT2B receptor (Homo sapiens, UniProt P41595); test: Displacement of [3H]-LSD from recombinant human 5HT2B receptor stably expressed in HEK cell membranes at 10 uM measured after 90 mins by microbeta scintillation counting method relative to control; settings: probe [3H]-LSD
5HT6 receptor = 5HT6 receptor (Homo sapiens, UniProt P50406); test: Displacement of [3H]-LSD from recombinant human 5HT6 receptor stably expressed in HEK cell membranes at 10 uM measured after 90 mins by microbeta scintillation counting method relative to control; settings: probe [3H]-LSD
5HT7A receptor = 5HT7A receptor (Homo sapiens, UniProt P34969); test: Displacement of [3H]-LSD from recombinant human 5HT7A receptor stably expressed in HEK cell membranes at 10 uM measured after 90 mins by microbeta scintillation counting method relative to control; settings: probe [3H]-LSD
[3] = target: T1, Alpha-1A adrenergic receptor (Homo sapiens, UniProt P35348); test: Displacement of [3H]-prazosin from recombinant human alpha1A adrenergic receptor at 10 uM measured after 90 mins by microbeta scintillation counting method relative to control; settings: probe [3H]-prazosin
T1 sequence (P35348 whole entry): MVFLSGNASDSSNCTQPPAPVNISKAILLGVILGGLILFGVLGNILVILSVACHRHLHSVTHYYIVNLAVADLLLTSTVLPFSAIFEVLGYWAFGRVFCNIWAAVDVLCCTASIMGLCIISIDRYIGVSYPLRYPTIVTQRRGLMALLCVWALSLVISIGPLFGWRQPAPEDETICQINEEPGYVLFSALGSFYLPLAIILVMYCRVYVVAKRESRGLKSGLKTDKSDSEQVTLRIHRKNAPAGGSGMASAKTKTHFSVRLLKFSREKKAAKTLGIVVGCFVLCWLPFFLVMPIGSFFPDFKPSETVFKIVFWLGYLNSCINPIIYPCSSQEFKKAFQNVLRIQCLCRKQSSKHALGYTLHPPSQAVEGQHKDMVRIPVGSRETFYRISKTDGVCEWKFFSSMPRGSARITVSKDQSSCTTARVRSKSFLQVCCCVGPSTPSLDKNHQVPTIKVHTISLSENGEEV

[4] = target: T2, Alpha-1D adrenergic receptor (Homo sapiens, UniProt P25100); test: Displacement of [3H]-prazosin from recombinant human alpha1D adrenergic receptor at 10 uM measured after 90 mins by microbeta scintillation counting method relative to control; settings: probe [3H]-prazosin
T2 sequence (P25100 whole entry): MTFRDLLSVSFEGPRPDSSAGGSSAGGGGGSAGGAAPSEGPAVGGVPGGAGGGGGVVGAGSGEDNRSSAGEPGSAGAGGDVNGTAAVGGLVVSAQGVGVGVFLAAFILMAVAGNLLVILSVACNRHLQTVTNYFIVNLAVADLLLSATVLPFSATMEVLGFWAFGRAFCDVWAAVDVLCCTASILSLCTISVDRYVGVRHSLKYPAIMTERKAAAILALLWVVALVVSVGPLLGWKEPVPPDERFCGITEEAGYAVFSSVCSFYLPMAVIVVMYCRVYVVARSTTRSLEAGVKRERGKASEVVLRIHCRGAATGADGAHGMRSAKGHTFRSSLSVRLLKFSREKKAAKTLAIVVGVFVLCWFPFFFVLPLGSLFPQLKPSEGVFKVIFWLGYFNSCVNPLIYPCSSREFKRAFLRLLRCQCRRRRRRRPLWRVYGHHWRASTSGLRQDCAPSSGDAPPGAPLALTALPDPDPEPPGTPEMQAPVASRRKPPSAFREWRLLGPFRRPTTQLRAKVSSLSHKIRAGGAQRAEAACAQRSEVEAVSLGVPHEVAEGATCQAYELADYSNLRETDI

[5] = target: Alpha-2B adrenergic receptor (Homo sapiens, UniProt P18089); test: Displacement of [3H]-rauwolscine from recombinant human alpha2B adrenergic receptor transiently expressed in HEKT cell membranes at 10 uM measured after 90 mins by microbeta scintillation counting method relative to control; settings: probe [3H]-rauwolscine
dopamine D4 receptor = dopamine D4 receptor (Homo sapiens, UniProt P21917); test: Displacement of [3H]-N-methylspiperone from recombinant human D4 receptor stably expressed in HEK cell membranes at 10 uM measured after 90 mins by microbeta scintillation counting method relative to control; settings: probe [3H]-N-methylspiperone
dopamine D5 receptor = dopamine D5 receptor (Homo sapiens, UniProt P21918); test: Displacement of [3H]-SCH23390 from recombinant human D5 receptor transiently expressed in HEKT cell membranes at 10 uM measured after 90 mins by microbeta scintillation counting method relative to control; settings: probe [3H]-SCH23390
[6] = target: delta opioid receptor (DOR) (Homo sapiens, UniProt P41143); test: Displacement of [3H]-DADLE from recombinant human DOR stably expressed in HEK cell membranes at 10 uM measured after 90 mins by microbeta scintillation counting method relative to control; settings: HEK cell membranes stably expressing recombinant human DOR, probe [3H]-DADLE
[7] = target: noradrenaline transporter (NET) (Homo sapiens, UniProt P23975); test: Displacement of [3H]-Nisoxetine from human NET receptor expressed in stable HEK cell membranes at 10 uM after 90 mins by microbeta scintillation counting method relative to control; settings: stable HEK cell membranes expressing human NET, probe [3H]-Nisoxetine
[8] = target: serotonin transporter (SERT) (Homo sapiens, UniProt P31645); test: Displacement of [3H]-citalopram from human SERT receptor expressed in stable HEK cell membranes at 10 uM after 90 mins by microbeta scintillation counting method relative to control; settings: stable HEK cell membranes expressing human SERT, probe [3H]-citalopram

SMILES | Ki (Histamine H2 receptor) [nM] | inhibition at […], 10 µM (5HT1A receptor) [%] | inhibition at […], 10 µM (5HT1B receptor) [%] | inhibition at […], 10 µM (5HT2A receptor) [%] | inhibition at […], 10 µM (5HT2B receptor) [%] | inhibition at […], 10 µM (5HT6 receptor) [%] | inhibition at […], 10 µM (5HT7A receptor) [%] | inhibition at […], 10 µM [3] [%] | inhibition at […], 10 µM [4] [%] | inhibition at […], 10 µM [5] [%] | inhibition at […], 10 µM (dopamine D4 receptor) [%] | inhibition at […], 10 µM (dopamine D5 receptor) [%] | inhibition at […], 10 µM [6] [%] | inhibition at […], 10 µM [7] [%] | inhibition at […], 10 µM [8] [%] | other results
CCCN(CC[C@]1(O)C[C@H](NC(=O)c2ccc3ccccc3c2)C1)[C@H]1CCc2nc(N)sc2C1 | 224 | > 50 | < 50 | > 50 | > 50 | < 50 | > 50 | < 50 | > 50 | < 50 | > 50 | < 50 | < 50 | > 50 | > 50 | Ki ([1]; read-out: Ki): 205 nM; Ki (Histamine H3 receptor; read-out: Ki): 893 nM; Ki ([2]; read-out: Ki): 32 nM
CCCN[C@H]1CCc2nc(N)sc2C1 [PRAMIPEXOLE] | 2680 | > 50 | > 50 | < 50 | < 50 | > 50 | > 50 | > 50 | < 50 | > 50 | > 50 | > 50 | > 50 | < 50 | < 50 | Ki [1]: Not Active; Ki (Histamine H3 receptor): Not Active; Ki [2]: Not Active
